Key:
CYP2C8 = biological target: T1, CYP2C8 (Homo sapiens, UniProt P10632); assay: Two-step luminescent P450 screen of luciferin derivatives; conditions: 50 µM substrate, 1 pmole P450, result in words
T1 sequence (P10632 1-490): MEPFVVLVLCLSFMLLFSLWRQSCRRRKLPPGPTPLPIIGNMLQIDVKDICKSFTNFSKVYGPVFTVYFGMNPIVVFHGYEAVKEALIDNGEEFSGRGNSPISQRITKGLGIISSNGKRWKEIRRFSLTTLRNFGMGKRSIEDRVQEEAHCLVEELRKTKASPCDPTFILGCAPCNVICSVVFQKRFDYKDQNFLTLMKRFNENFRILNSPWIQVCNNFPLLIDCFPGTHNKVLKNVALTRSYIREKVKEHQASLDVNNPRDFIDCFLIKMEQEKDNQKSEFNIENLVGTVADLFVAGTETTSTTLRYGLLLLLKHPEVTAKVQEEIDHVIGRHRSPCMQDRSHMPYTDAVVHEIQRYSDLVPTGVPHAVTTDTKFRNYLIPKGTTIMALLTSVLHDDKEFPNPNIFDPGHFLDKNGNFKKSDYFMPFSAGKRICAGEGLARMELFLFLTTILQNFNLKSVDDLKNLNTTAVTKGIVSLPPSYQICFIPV

CYP1A1 = biological target: T2, CYP1A1 (Homo sapiens, UniProt P04798); assay: as above; conditions: 50 µM substrate, 1 pmole P450, 37°C 30 minutes; result in words
T2 sequence (P04798 1-512): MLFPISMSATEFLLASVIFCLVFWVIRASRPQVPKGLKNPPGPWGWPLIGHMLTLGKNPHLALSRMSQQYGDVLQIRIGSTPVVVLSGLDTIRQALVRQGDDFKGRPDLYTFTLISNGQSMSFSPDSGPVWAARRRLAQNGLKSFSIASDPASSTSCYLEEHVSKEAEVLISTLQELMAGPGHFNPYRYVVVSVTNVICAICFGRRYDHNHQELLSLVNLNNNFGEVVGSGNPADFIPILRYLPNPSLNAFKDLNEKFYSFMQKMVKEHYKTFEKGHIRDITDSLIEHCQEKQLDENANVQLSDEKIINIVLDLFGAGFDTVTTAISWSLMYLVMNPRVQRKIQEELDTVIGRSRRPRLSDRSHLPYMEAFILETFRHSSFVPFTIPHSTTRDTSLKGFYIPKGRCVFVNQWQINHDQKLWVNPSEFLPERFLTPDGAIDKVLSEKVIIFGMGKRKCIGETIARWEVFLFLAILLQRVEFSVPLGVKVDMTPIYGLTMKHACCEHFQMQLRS

CYP1A2 = biological target: T3, CYP1A2 (Homo sapiens, UniProt P05177); assay: as above; assay type: biochemical; conditions: 50 µM substrate, 1 pmole P450, result in words
T3 construct: purchased Discovery Labware (BD/Gentest); host or cells: insect cell expression system (membrane fractions)
T3 sequence (P05177 2-516 limits assumed): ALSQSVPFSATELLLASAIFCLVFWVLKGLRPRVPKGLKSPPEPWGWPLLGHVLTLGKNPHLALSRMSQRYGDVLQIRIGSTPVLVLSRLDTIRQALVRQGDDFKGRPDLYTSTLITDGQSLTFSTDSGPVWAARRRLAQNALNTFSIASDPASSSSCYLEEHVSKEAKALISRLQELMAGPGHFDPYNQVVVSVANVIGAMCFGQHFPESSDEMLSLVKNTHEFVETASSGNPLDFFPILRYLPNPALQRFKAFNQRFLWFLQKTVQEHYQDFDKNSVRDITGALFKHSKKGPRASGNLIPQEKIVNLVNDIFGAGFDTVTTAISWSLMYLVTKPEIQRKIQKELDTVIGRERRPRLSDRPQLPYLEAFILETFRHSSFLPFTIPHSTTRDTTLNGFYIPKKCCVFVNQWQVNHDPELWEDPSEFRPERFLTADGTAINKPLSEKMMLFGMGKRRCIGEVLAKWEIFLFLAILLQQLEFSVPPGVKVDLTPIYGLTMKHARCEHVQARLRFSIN
Experimental: (§1) P450s are Supersomes™ purchased from Discovery Labware (BD/Gentest). […] HLM is human liver microsomes.
(§2) 1X substrate concentration: 50 µM.

CYP2C9 = biological target: T4, CYP2C9 (Homo sapiens, UniProt P11712); assay: as above; assay type: biochemical; conditions: 50 µM substrate, 1 pmole P450, result in words
T4 construct: purchased Discovery Labware (BD/Gentest); host or cells: insect cell expression system (membrane fractions)
T4 sequence (P11712 whole entry): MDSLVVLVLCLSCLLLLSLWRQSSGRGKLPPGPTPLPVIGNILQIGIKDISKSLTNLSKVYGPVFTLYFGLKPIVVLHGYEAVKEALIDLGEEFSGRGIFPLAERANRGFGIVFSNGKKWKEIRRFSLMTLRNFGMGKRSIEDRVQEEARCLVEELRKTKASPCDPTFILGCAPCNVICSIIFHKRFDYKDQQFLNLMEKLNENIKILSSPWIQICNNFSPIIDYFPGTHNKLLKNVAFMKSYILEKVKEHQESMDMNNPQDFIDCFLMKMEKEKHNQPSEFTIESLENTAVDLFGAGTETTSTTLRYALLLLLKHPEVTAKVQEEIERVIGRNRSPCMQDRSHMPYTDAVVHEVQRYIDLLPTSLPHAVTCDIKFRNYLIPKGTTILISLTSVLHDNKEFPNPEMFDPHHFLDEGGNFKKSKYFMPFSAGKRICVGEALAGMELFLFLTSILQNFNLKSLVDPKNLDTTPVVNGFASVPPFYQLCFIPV
Experimental: as §1, §2

CYP4A11 = biological target: T5, CYP4A11 (Homo sapiens, UniProt Q02928); assay: as above; assay type: biochemical; conditions: result in words
T5 construct: purchased Discovery Labware (BD/Gentest); host or cells: insect cell expression system (membrane fractions)
T5 sequence (Q02928 5-519): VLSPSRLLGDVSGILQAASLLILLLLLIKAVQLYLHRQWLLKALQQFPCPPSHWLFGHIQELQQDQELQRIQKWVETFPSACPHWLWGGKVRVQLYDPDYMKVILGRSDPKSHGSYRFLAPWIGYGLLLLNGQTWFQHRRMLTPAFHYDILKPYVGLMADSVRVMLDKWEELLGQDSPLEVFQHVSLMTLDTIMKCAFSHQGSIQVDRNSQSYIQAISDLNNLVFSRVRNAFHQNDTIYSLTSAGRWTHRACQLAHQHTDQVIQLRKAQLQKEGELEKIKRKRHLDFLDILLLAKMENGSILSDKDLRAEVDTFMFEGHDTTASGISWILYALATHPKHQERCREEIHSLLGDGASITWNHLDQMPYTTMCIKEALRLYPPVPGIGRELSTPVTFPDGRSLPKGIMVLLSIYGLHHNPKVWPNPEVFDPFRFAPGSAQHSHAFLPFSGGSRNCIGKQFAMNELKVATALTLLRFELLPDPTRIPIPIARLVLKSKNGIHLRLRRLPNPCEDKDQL
Experimental: as §1, §2

CYP3A7 = CYP3A7 (Homo sapiens, UniProt P24462); assay: as above; conditions: result in words
Sequence of CYP3A7 (P24462 whole entry): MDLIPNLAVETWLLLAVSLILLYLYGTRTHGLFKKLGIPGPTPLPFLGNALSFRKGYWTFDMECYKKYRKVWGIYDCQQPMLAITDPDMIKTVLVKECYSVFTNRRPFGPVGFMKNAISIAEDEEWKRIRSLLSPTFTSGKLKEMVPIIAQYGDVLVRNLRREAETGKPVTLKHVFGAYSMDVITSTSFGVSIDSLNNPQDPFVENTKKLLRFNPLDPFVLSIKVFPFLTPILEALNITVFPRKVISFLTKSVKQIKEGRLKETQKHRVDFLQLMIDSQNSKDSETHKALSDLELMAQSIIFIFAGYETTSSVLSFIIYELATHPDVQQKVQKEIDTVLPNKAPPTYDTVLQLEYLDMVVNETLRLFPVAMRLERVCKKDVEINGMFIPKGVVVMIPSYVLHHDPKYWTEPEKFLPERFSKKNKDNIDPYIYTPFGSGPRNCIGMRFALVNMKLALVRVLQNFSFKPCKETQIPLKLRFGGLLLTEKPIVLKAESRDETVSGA

CYP2C19 = biological target: T6, CYP2C19 (Homo sapiens, UniProt P33261); assay: as above; assay type: biochemical; conditions: for P450 activity / selectivity with the derivative as substrate: result in words
T6 construct: purchased Discovery Labware (BD/Gentest); host or cells: insect cell expression system (membrane fractions)
T6 sequence (P33261 whole entry): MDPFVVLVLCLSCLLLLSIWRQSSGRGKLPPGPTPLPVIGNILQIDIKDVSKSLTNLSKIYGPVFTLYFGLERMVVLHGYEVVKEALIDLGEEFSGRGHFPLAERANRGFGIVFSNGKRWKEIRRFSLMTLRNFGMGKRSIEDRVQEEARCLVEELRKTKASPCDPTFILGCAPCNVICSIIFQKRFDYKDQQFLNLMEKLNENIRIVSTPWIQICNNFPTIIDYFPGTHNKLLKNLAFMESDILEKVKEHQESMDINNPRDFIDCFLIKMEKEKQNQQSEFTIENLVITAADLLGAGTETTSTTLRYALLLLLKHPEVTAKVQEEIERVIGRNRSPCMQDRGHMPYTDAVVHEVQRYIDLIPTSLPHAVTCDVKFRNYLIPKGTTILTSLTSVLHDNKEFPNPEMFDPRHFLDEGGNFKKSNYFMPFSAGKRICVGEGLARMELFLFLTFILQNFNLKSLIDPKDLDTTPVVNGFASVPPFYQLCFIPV
Experimental: as §1, §2
(§3) For Figure 20, 1 or 5 picomoles of recombinant CYP2D6 or CYP2C19 membrane fractions from an insect cell expression system (SupersomesTM, Discovery Labware) were incubated at 37°C for 60 minutes with 200 µM D-luciferin 6' methyl ether (luciferin-ME) in 50 mM (CYP2C19) or 100 mM (CYP2D6) KPO4 (pH 7.4) with an NADPH regenerating system (as described above) in a volume of 50 µl. […] For Figure 20, the panel of human P450s was screened as described above.

CYP2D6 = biological target: T7, CYP2D6 (Homo sapiens, UniProt P10635); assay: as above; assay type: biochemical; conditions: result in words
T7 construct: purchased Discovery Labware (BD/Gentest); host or cells: insect cell expression system (membrane fractions)
T7 sequence (P10635 whole entry): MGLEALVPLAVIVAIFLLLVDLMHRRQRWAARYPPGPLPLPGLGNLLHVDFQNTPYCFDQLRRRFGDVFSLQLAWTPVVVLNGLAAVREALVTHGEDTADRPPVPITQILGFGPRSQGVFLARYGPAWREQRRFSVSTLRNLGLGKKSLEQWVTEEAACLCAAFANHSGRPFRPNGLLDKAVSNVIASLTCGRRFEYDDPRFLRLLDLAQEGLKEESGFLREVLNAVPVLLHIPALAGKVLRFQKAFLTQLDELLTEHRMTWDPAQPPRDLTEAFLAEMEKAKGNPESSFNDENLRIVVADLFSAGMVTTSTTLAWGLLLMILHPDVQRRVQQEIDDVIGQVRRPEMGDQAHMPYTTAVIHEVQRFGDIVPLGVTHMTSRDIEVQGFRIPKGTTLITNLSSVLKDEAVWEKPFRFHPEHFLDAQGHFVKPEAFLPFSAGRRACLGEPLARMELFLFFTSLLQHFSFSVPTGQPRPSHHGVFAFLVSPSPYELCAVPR
Experimental: as §1, §2, §3

QuantiLum Luciferase = biological target: T8, QuantiLum Luciferase (Photinus pyralis, UniProt P08659); assay: Scaffolds: light emission of luciferin derivatives with QuantiLum luciferase alone, + Co A, + DTT, + Co A and DTT; assay type: biochemical, firefly
T8 construct: purchased Promega Corporation E170
T8 sequence (P08659 whole entry): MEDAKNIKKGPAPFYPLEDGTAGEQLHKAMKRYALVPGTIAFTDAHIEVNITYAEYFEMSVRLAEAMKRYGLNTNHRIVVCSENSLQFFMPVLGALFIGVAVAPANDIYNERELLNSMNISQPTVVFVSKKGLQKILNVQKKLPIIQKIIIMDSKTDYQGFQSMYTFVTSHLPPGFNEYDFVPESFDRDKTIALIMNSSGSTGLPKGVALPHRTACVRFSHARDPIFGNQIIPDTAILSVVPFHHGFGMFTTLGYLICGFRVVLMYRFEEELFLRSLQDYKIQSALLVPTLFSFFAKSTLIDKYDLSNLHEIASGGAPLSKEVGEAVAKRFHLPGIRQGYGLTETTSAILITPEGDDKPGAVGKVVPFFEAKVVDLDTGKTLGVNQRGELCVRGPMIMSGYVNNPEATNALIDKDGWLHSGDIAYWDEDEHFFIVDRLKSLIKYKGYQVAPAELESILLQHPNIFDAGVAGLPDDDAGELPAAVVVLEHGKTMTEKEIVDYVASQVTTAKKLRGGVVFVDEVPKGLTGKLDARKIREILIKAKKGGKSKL
Experimental: The DTT, Coenzyme A, and QuantiLum stock solutions are the same as those described herein.
This solution was diluted 1:1 with water to produce an enzyme solution labeled "No addition." This solution was diluted 1:1 with 400 mM DTT, pH 8.0 to produce a solution labeled +DTT. This solution was diluted 1:1 with 4 mM Coenzyme A to produce a solution labeled + Co A. Finally, this solution was diluted 1:1 with a solution having both 4 mM Coenzyme A and 400 mM DTT to produce a solution labeled +Co A & DTT.
50 µl samples of these solutions were placed in the wells of luminometer microtiter plates, row A to row G, respeutivly. Row H of the plates was given 50 µl of water.
Reactions in these plates were initiated by addition of 50 µl of solution containing QuantiLum luciferase using a 12 channel micropipette. The solutions added to the rows were: columns 1, 5, and 9 - no addition solution; columns 2, 6, and 10 - + Co A solution; columns 3, 7, and 11 + DTT solution, and; columns 4, 8, and 12 - + Co A and DTT solution. After addition of the enzyme solution to the first row on every plate, a timer was started. After addition of the enzyme solution to the last row on each plate, the plate was sealed and read on a Veritas luminometer.

Molecule: COc1cc(C)c2nc(C3=NC(C(=O)O)CS3)sc2c1 (centres unmarked) [4-methyl-6-(O-methyl)-luciferin]
- P450 activity / selectivity with the derivative as substrate (CYP2C8): enhanced selectivity
- P450 activity / selectivity with the derivative as substrate (CYP2C8; listed as line 11): preferred substrate
- P450 activity / selectivity with the derivative as substrate (CYP1A1): preferred substrate
- P450 activity / selectivity with the derivative as substrate (CYP1A2): enhanced selectivity
- P450 activity / selectivity with the derivative as substrate (CYP1A2; listed as line 11): preferred substrate
- P450 activity / selectivity with the derivative as substrate (CYP2C9): enhanced selectivity
- P450 activity / selectivity with the derivative as substrate (CYP2C9; listed as line 11): preferred substrate
- P450 activity / selectivity with the derivative as substrate (CYP4A11): did not react

Molecule: bis-luciferin-xylyldiether
- P450 activity / selectivity with the derivative as substrate (CYP3A7): selective

Molecule: O=C(OCc1cccnc1)[C@H]1CSC(c2nc3ccccc3s2)=N1 [carboxyl picolinyl ester of luciferin-H, m-picolinyl ester of luciferin-H]
- P450 activity / selectivity with the derivative as substrate (CYP1A1): showed preference
- signal when the esterase was not added, relative to the plus esterase signal (CYP2C19; purified recombinant CYP2C19 substantially free of carboxylesterases, 2 step assay): less than 10%
- P450 activity / selectivity with the derivative as substrate (CYP2C19): showed preference
- P450 activity / selectivity with the derivative as substrate (CYP1A2): showed preference

Molecule: O=C(O)[C@H]1CSC(c2nc3ccc(OCc4cccnc4)cc3s2)=N1 [luciferin 6' 3-picolinyl ether, reference compound]
- P450 activity / selectivity with the derivative as substrate (CYP3A7): cross reacted significantly

Molecule: COc1cc(OC)c2nc(C3=NC(C(=O)O)CS3)sc2c1 (centres unmarked) [4-(O-methyl)-6-(O-methyl)-luciferin]
- P450 activity / selectivity with the derivative as substrate (CYP2C8): enhanced selectivity
- P450 activity / selectivity with the derivative as substrate (CYP2C8; listed as line 12): preferred substrate
- P450 activity / selectivity with the derivative as substrate (CYP1A1): preferred substrate
- P450 activity / selectivity with the derivative as substrate (CYP1A2): enhanced selectivity
- P450 activity / selectivity with the derivative as substrate (CYP1A2; listed as line 12): preferred substrate
- P450 activity / selectivity with the derivative as substrate (CYP2C9): enhanced selectivity
- P450 activity / selectivity with the derivative as substrate (CYP2C9; listed as line 12): preferred substrate
- P450 activity / selectivity with the derivative as substrate (CYP4A11): did not react

Molecule: O=C(O)[C@H]1CSC(c2nc3ccc(OCSc4ccc(Cl)cc4)cc3s2)=N1 [6'-p-chlorophenylthiol-methoxy-luciferin, 6-(4-Chloro-phenylthiomethoxy) luciferin]
- P450 activity / selectivity with the derivative as substrate (CYP3A7): showed selectivity

Molecule: COC(=O)[C@H]1CSC(c2nc3ccc(OC)cc3s2)=N1 [carboxyl ester of luciferin-ME, carboxyl methyl ester of luciferin-ME]
- P450 activity / selectivity with the derivative as substrate (CYP2D6): substantially increased
- P450 activity / selectivity with the derivative as substrate (CYP2C19): reacted strongly

Molecule: COc1ccc2nc(C3=N[C@@H](C(=O)O)CS3)sc2c1 [luciferin 6-methyl ether, D-luciferin 6' methyl ether, reference compound]
- light emission values (QuantiLum Luciferase; Derivative Conc. 1.07, Alone): 1197
- light emission values (QuantiLum Luciferase; Derivative Conc. 1.07, Co A): 1523
- light emission values (QuantiLum Luciferase; Derivative Conc. 1.07, Co A + DTT): 3180
- light emission values (QuantiLum Luciferase; Derivative Conc. 1.07, DTT): 3160
- light emission values (QuantiLum Luciferase; Derivative Conc. 3.13, Alone): 1053
- light emission values (QuantiLum Luciferase; Derivative Conc. 3.13, Co A): 1360
- light emission values (QuantiLum Luciferase; Derivative Conc. 3.13, Co A + DTT): 2853
- light emission values (QuantiLum Luciferase; Derivative Conc. 3.13, DTT): 3332
- light emission values (QuantiLum Luciferase; Derivative Conc. 6.25, Alone): 1240
- light emission values (QuantiLum Luciferase; Derivative Conc. 6.25, Co A): 1673
- light emission values (QuantiLum Luciferase; Derivative Conc. 6.25, Co A + DTT): 2882
- light emission values (QuantiLum Luciferase; Derivative Conc. 6.25, DTT): 2844
- light emission values (QuantiLum Luciferase; Derivative Conc. 12.5, Alone): 1563
- light emission values (QuantiLum Luciferase; Derivative Conc. 12.5, Co A): 1768
- light emission values (QuantiLum Luciferase; Derivative Conc. 12.5, Co A + DTT): 2510
- light emission values (QuantiLum Luciferase; Derivative Conc. 12.5, DTT): 2961
- light emission values (QuantiLum Luciferase; Derivative Conc. 25, Alone): 2083
- light emission values (QuantiLum Luciferase; Derivative Conc. 25, Co A): 2224
- light emission values (QuantiLum Luciferase; Derivative Conc. 25, Co A + DTT): 2992
- light emission values (QuantiLum Luciferase; Derivative Conc. 25, DTT): 3491
- light emission values (QuantiLum Luciferase; Derivative Conc. 50, Alone): 2690
- light emission values (QuantiLum Luciferase; Derivative Conc. 50, Co A): 2704
- light emission values (QuantiLum Luciferase; Derivative Conc. 50, Co A + DTT): 3635
- light emission values (QuantiLum Luciferase; Derivative Conc. 50, DTT): 4052
- light emission values (QuantiLum Luciferase; Derivative Conc. 100, Alone): 3589
- light emission values (QuantiLum Luciferase; Derivative Conc. 100, Co A): 3389
- light emission values (QuantiLum Luciferase; Derivative Conc. 100, Co A + DTT): 4550
- light emission values (QuantiLum Luciferase; Derivative Conc. 100, DTT): 5399
- P450 activity / selectivity with the derivative as substrate (CYP2D6): extremely low activity
- P450 activity / selectivity with the derivative as substrate (CYP2D6; listed as Luciferin 6-methyl ether): some activity
- P450 activity / selectivity with the derivative as substrate (CYP2C19): some activity
